According to US20090182057A1, “DEUTERATED AMINOGLYCIDAL COMPOUNDS” (AUSPEX PHARMACEUTICALS, INC., priority 2006, published 2009):

Conditions: topical or ocular, 5 microgram per mL
Description: In Vitro Liver Microsomal Stability Assay
Liver microsomal stability assays are conducted at 1 mg per mL liver microsome protein with an NADPH-generating system in 2% NaHCO3 (2.2 mM NADPH, 25.6 mM glucose 6-phosphate, 6 units per mL glucose 6-phosphate dehydrogenase and 3.3 mM MgCl2). Test compounds are prepared as solutions in 20% acetonitrile-water, and added to the assay mixture (final assay concentration 5 microgram per mL) and incubated at 37° C. Final concentration of acetonitrile in the assay should be <1%. Aliquots (50 μL) are taken out at times 0, 15, 30, 45, and 60 min, and diluted with ice cold acetonitrile (200 μL) to stop the reactions. Samples are centrifuged at 12,000 RPM for 10 min to precipitate proteins. Supernatants are transferred to microcentrifuge tubes and stored for LC/MS/MS analysis of the degradation half-life of the test compounds.

increase in the degradation half-life as compared to non-isotopically enriched metoprolol | Structure (SMILES)
10-30% | [2H]C([2H])(Cc1ccc(OCC(O)CNC(C)C)cc1)OC (stereo not shown) [d2-metoprolol, d2-1-Isopropylamino-3-[4-(2-methoxy-ethyl)-phenoxy]-propan-2-ol]
10-30% | [2H]C([2H])([2H])OCCc1ccc(OCC(O)CNC(C)C)cc1 (stereo not shown) [d3-metoprolol, d3-1-Isopropylamino-3-[4-(2-methoxy-ethyl)-phenoxy]-propan-2-ol]
10-30% | [2H]C([2H])([2H])OC([2H])([2H])Cc1ccc(OCC(O)CNC(C)C)cc1 (stereo not shown) [d5-metoprolol, d5-1-Isopropylamino-3-[4-(2-methoxy-ethyl)-phenoxy]-propan-2-ol]
10-30% | [2H]C([2H])([2H])OC([2H])([2H])Cc1ccc(OC([2H])([2H])C([2H])(O)C([2H])([2H])NC(C([2H])([2H])[2H])C([2H])([2H])[2H])cc1 (stereo not shown) [d16-metoprolol, d16-1-Isopropylamino-3-[4-(2-methoxy-ethyl)-phenoxy]-propan-2-ol]
